Data on eleven molecules can be found in PubChem BioAssay (NCI).

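Compound exposure: 48 hours, 5 concentrations, 96-well plates. GI50 marks 50% less growth. The concentration for full growth arrest is given as TGI.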

Test systems include NCI/ADR-RES ovarian; BT-549 breast; MOLT-4 leukemia; IGROV1 ovarian; CCRF-CEM leukemia; SNB-19 CNS; MDA-MB-435.
Assay in all cases: NCI-60 cell line screen, 48 h

On to `N[C@@H]1C(=O)N2C(C(=O)OC(c3ccccc3)c3ccccc3)=C(CCl)CS[C@H]12`, for which the GI50 in the assay on NCI/ADR-RES ovarian was 38.2 µM; in the assay with BT-549 breast, 25.4 µM; in the assay with MOLT-4 leukemia, 11.3 µM; in the assay with IGROV1 ovarian, 47.4 µM; in the assay with SNB-19 CNS it was 66.7 µM; in the assay with MDA-MB-435, 35.1 µM. Further, the TGI is over 100 µM in the assay with NCI/ADR-RES ovarian; 62.8 µM in the assay on BT-549 breast; over 71.2 µM with MOLT-4 leukemia; over 100 µM with IGROV1 ovarian; over 61.6 µM with CCRF-CEM leukemia; over 100 µM in the assay with SNB-19 CNS. Besides, the TGI in the assay with MDA-MB-435 is over 100 µM.
In the case of `Clc1ccc(-c2nnc(-c3cccc4ccccc34)o2)cc1Cl`, the TGI is over 100 µM in the assay on NCI/ADR-RES ovarian; over 100 µM with BT-549 breast; over 100 µM in the assay on MOLT-4 leukemia; 53.9 µM with IGROV1 ovarian; over 100 µM in the assay with CCRF-CEM leukemia; over 100 µM with SNB-19 CNS. The TGI in the assay on MDA-MB-435 was over 100 µM.
Turning to `CCN(Cc1ccc(F)cc1)c1ccc(CO)c(C)c1`, the GI50 in the assay with NCI/ADR-RES ovarian was 16.8 µM; in the assay on BT-549 breast, 5.15 µM; with MOLT-4 leukemia, 15.5 µM; in the assay with IGROV1 ovarian, 1.25 µM; with CCRF-CEM leukemia it was 19.7 µM; with SNB-19 CNS, 31.4 µM. In addition, in the assay with MDA-MB-435, the GI50 is 18 µM. Also, the TGI is 53.5 µM in the assay with NCI/ADR-RES ovarian; 24.5 µM in the assay with BT-549 breast; 58.8 µM with MOLT-4 leukemia; 6.16 µM in the assay with IGROV1 ovarian; 59.2 µM in the assay with CCRF-CEM leukemia; over 100 µM with SNB-19 CNS. This molecule displayed a TGI in the assay on MDA-MB-435 of 45.5 µM.
With `COc1cccc(/C=N/NC(=S)NC2CC3CCC2C3)c1O` (configuration not stated), the GI50 in the assay with NCI/ADR-RES ovarian is 3.16 µM; in the assay on BT-549 breast, 14.5 µM; in the assay on MOLT-4 leukemia it was 10.5 µM; in the assay on IGROV1 ovarian, 10 µM; in the assay on CCRF-CEM leukemia it was 6.65 µM; in the assay on SNB-19 CNS, 14.6 µM. The GI50 in the assay on MDA-MB-435 was 16.1 µM. Also, the TGI worked out at 15.1 µM in the assay with NCI/ADR-RES ovarian; 57.3 µM with BT-549 breast; 48.3 µM in the assay with MOLT-4 leukemia; 35.1 µM in the assay on IGROV1 ovarian; 38.7 µM in the assay with CCRF-CEM leukemia; 35.9 µM in the assay with SNB-19 CNS. For the same molecule, the TGI in the assay with MDA-MB-435 is 78.9 µM.
With `Cc1cn(C2C=CC(CO)O2)c(=O)[nH]c1=O` (configuration not stated), the TGI in the assay with NCI/ADR-RES ovarian, with BT-549 breast, in the assay with MOLT-4 leukemia, in the assay on IGROV1 ovarian, in the assay with CCRF-CEM leukemia and in the assay on SNB-19 CNS was over 1000 µM in each case. Further, the TGI in the assay with MDA-MB-435 is over 1000 µM.
In the case of `CC(C)(C)c1ccc(OC(=O)Nc2ccc(O)c(C(=O)O)c2)cc1`, the TGI in the assay on NCI/ADR-RES ovarian, in the assay on BT-549 breast, with MOLT-4 leukemia, with IGROV1 ovarian, with CCRF-CEM leukemia and in the assay with SNB-19 CNS was over 100 µM throughout. The TGI with MDA-MB-435 was over 100 µM.
For `COc1ccc(S(=O)(=O)NC2=NCCN2C(=S)SN2CCn3c2nsc3=S)cc1`, the GI50 with NCI/ADR-RES ovarian was 32.5 µM; with BT-549 breast, 10.4 µM; in the assay with MOLT-4 leukemia, 29.4 µM; with IGROV1 ovarian, 30.6 µM; with CCRF-CEM leukemia it was 7.95 µM; with SNB-19 CNS, 32.9 µM. For the same molecule, the GI50 with MDA-MB-435 is 14.8 µM. The TGI was over 100 µM in the assay on NCI/ADR-RES ovarian; 23.5 µM in the assay with BT-549 breast; over 100 µM in the assay with MOLT-4 leukemia; over 100 µM in the assay with IGROV1 ovarian; 32.4 µM in the assay with CCRF-CEM leukemia; over 100 µM with SNB-19 CNS. Also, in the assay on MDA-MB-435, the TGI worked out at 43.9 µM.
For the molecule `COc1cc(-c2cc(-c3ccc(Nc4ccnc5cc(Cl)ccc45)cc3)nc(N3CCOCC3)n2)cc(OC)c1OC`, the GI50 with NCI/ADR-RES ovarian was 2.3 µM; in the assay with BT-549 breast it was 2.57 µM; with MOLT-4 leukemia, 2.58 µM; with IGROV1 ovarian, 1.91 µM; in the assay with CCRF-CEM leukemia it was 1.54 µM; in the assay with SNB-19 CNS it was 2.36 µM. Further, the GI50 in the assay with MDA-MB-435 was 1.75 µM. The TGI in the assay on NCI/ADR-RES ovarian was determined as 7.26 µM; with BT-549 breast, 7.19 µM; with MOLT-4 leukemia it was 9.2 µM; in the assay on IGROV1 ovarian it was 4.03 µM; in the assay with CCRF-CEM leukemia, 6.17 µM; in the assay on SNB-19 CNS it was 5.28 µM. The TGI in the assay with MDA-MB-435 was determined as 3.48 µM.
For the molecule `Oc1ccc(-c2nc3ccc4[nH]ncc4c3c3c2CCCC3)c(F)c1`, the GI50 in the assay with NCI/ADR-RES ovarian was 3.91 µM; with BT-549 breast, 1.73 µM; in the assay on MOLT-4 leukemia, 1.91 µM; with IGROV1 ovarian it was 2.8 µM; in the assay with CCRF-CEM leukemia, 2.05 µM; in the assay with SNB-19 CNS, 3.59 µM. For the same molecule, the GI50 in the assay on MDA-MB-435 was 1.75 µM. Moreover, the TGI was determined as 53.3 µM in the assay with NCI/ADR-RES ovarian; 8.87 µM in the assay on BT-549 breast; 8.88 µM in the assay on MOLT-4 leukemia; 12.4 µM with IGROV1 ovarian; 11.4 µM with CCRF-CEM leukemia; 14.2 µM in the assay on SNB-19 CNS. In the assay with MDA-MB-435, this molecule had a TGI of 10.9 µM.
On to `COc1cccc(-c2nn(-c3ccccc3)cc2-c2ccnc(NCCNC(=O)Nc3cccc(C(F)(F)F)c3)c2)c1`, for which the GI50 in the assay with NCI/ADR-RES ovarian is 2.22 µM; in the assay with BT-549 breast, 3.4 µM; in the assay on MOLT-4 leukemia, 2.02 µM; with IGROV1 ovarian, 2.88 µM; in the assay on CCRF-CEM leukemia, 2.46 µM; in the assay with SNB-19 CNS it was 3.12 µM. Besides, the GI50 in the assay with MDA-MB-435 was 1.75 µM. The TGI is 5.82 µM in the assay with NCI/ADR-RES ovarian; 13.1 µM in the assay on BT-549 breast; 4.81 µM in the assay on MOLT-4 leukemia; 9.34 µM in the assay on IGROV1 ovarian; 7 µM in the assay on CCRF-CEM leukemia; 11.9 µM with SNB-19 CNS. Also, the TGI in the assay with MDA-MB-435 was found to be 3.38 µM.
Turning to `COc1ccc(C(c2ccc(OCCN(C)C)cc2)c2cc3ccccc3c3ccccc23)cc1` (configuration not stated), the GI50 was 1.71 µM with NCI/ADR-RES ovarian; 1.78 µM with BT-549 breast; 1.58 µM in the assay on MOLT-4 leukemia; 1.68 µM with IGROV1 ovarian; 1.8 µM in the assay on CCRF-CEM leukemia; 1.72 µM in the assay with SNB-19 CNS. The GI50 in the assay with MDA-MB-435 is 1.71 µM. Also, the TGI worked out at 3.39 µM in the assay on NCI/ADR-RES ovarian; 3.35 µM in the assay with BT-549 breast; 3.42 µM with MOLT-4 leukemia; 3.3 µM with IGROV1 ovarian; 3.91 µM with CCRF-CEM leukemia; 3.31 µM in the assay on SNB-19 CNS. This molecule also yielded a TGI with MDA-MB-435 of 3.14 µM.
